Tests used:
[1] = test system: morningglory; assay: Test A pre-/postemergence greenhouse test; format: in vivo, Ipomoea spp.; conditions: for Plant response rating, Morningglory: 0 to 100 scale where 0 is no effect and 100 is complete control; for Morningglory plant response rating: 0 to 100 scale
In short: (§1)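 Seeds sown in a loam soil–sand blend got a preemergence directed soil spray of compound in a non-phytotoxic solvent mixture containing surfactant. Postemergence sprays of the same formulation went at the same time onto plants 2–10 cm tall at the one- to two-leaf stage. Injury was scored visually against untreated controls after about ten days in the greenhouse.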

[2] = test system: barnyardgrass; assay: Test A pre-/postemergence greenhouse test; format: in vivo, Echinochloa crus-galli; conditions: for Plant response rating, Barnyardgrass: 0 to 100 scale where 0 is no effect and 100 is complete control; for Barnyardgrass plant response rating: 0 to 100 scale
In short: as §1

[3] = test system: corn; assay: Test A pre-/postemergence greenhouse test; format: in vivo, Zea mays; conditions: for Plant response rating, Corn: 0 to 100 scale where 0 is no effect and 100 is complete control; for Corn plant response rating: 0 to 100 scale
In short: as §1

[4] = test system: umbrella sedge; assay: Test C flooded paddy test; format: in vivo, Cyperus difformis; conditions: Flood
In short: (§2)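 Test compounds are applied straight into paddy water held 3 cm above the soil surface, with that flood maintained for the whole test. After 13 to 15 days in the greenhouse, each species is scored visually relative to controls.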

[5] = test system: barnyardgrass; assay: Test C flooded paddy test; format: in vivo, Echinochloa crus-galli; conditions: Flood
In short: as §2

[6] = test system: velvetleaf; assay: Test A pre-/postemergence greenhouse test; format: in vivo, Abutilon theophrasti; conditions: for Plant response rating, Velvetleaf: 0 to 100 scale where 0 is no effect and 100 is complete control; for Velvetleaf plant response rating: 0 to 100 scale
In short: as §1

[7] = test system: giant foxtail; assay: Test A pre-/postemergence greenhouse test; format: in vivo, Setaria faberi; conditions: for Plant response rating, Foxtail, Giant: 0 to 100 scale where 0 is no effect and 100 is complete control; for Foxtail, Giant plant response rating: 0 to 100 scale
In short: as §1

[8] = test system: rice; assay: Test C flooded paddy test; format: in vivo, Oryza sativa; conditions: Flood
In short: as §2

[9] = test system: wheat; assay: Test A pre-/postemergence greenhouse test; format: in vivo, Triticum aestivum; conditions: for Plant response rating, Wheat: 0 to 100 scale where 0 is no effect and 100 is complete control; for Wheat plant response rating: 0 to 100 scale
In short: as §1

[10] = test system: redroot pigweed; assay: Test A pre-/postemergence greenhouse test; format: in vivo, Amaranthus retroflexus; conditions: for Plant response rating, Pigweed: 0 to 100 scale where 0 is no effect and 100 is complete control; for Pigweed plant response rating: 0 to 100 scale
In short: as §1

[11] = test system: duck salad; assay: Test C flooded paddy test; format: in vivo, Heteranthera limosa; conditions: Flood
In short: as §2

[12] = test system: crabgrass; assay: Test A pre-/postemergence greenhouse test; format: in vivo, Digitaria sanguinalis; conditions: for Plant response rating, Crabgrass, Large: 0 to 100 scale where 0 is no effect and 100 is complete control; for Crabgrass, Large plant response rating: 0 to 100 scale
In short: as §1

[13] = Postemergence, 500 g ai/ha, 0 is no effect, 100 is complete control
[14] = Preemergence, 125 g ai/ha, 0 no effect, 100 complete control
[15] = 250 g ai/ha, scale 0 to 100, 0 no effect, 100 complete control, 13 to 15 days
[16] = 62 g ai/ha, scale 0 to 100, 0 no effect, 100 complete control, 13 to 15 days
[17] = Postemergence, 125 g ai/ha, 0 is no effect, 100 is complete control
[18] = 31 g ai/ha, scale 0 to 100 (0 no effect, 100 complete control)
[19] = 125 g ai/ha, scale 0 to 100, 0 no effect, 100 complete control, 13 to 15 days
[20] = 250 g ai/ha, scale 0 to 100 (0 no effect, 100 complete control)
[21] = 62 g ai/ha, scale 0 to 100 (0 no effect, 100 complete control)
[22] = Preemergence, 500 g ai/ha, 0 no effect, 100 complete control

Cc1cc[n+]([O-])c(S(=O)(=O)Cc2c(C(F)(F)F)nn(CC(F)(F)F)c2Cl)c1 [Compound 49]
80: Foxtail, Giant plant response rating [7, 14] | Pigweed plant response rating [10, 14]
100: Plant response rating, Pigweed ([10]; Preemergence, 500 g ai/ha)
90: Plant response rating, Barnyardgrass ([2]; Preemergence, 500 g ai/ha) | Plant response rating, Foxtail, Giant ([7]; Preemergence, 500 g ai/ha) | Plant response rating, Crabgrass, Large ([12]; Preemergence, 500 g ai/ha)
0: Plant response rating, Morningglory ([1]; Postemergence, 125 g ai/ha) | Morningglory plant response rating [1, 13] | Plant response rating, Corn ([3]; Postemergence, 125 g ai/ha) | Corn plant response rating [3, 13] | Corn plant response rating [3, 14] | Plant response rating, Corn ([3]; Preemergence, 500 g ai/ha) | Plant response rating, Barnyardgrass [5, 16] | Plant response rating, Barnyardgrass [5, 15] | Velvetleaf plant response rating [6, 14] | Plant response rating, Rice [8, 16] | Plant response rating, Rice [8, 15] | Plant response rating, Wheat ([9]; Postemergence, 125 g ai/ha) | Wheat plant response rating [9, 13] | Wheat plant response rating [9, 14] | Plant response rating, Pigweed ([10]; Postemergence, 125 g ai/ha) | Plant response rating, Ducksalad [11, 16] | Plant response rating, Ducksalad [11, 15]
10: Plant response rating, Sedge, Umbrella [4, 15] | Pigweed plant response rating [10, 13]
40: Plant response rating, Barnyardgrass ([2]; Postemergence, 125 g ai/ha) | Plant response rating, Velvetleaf ([6]; Preemergence, 500 g ai/ha) | Plant response rating, Foxtail, Giant ([7]; Postemergence, 125 g ai/ha)
70: Barnyardgrass plant response rating [2, 13] | Barnyardgrass plant response rating [2, 14] | Foxtail, Giant plant response rating [7, 13] | Crabgrass, Large plant response rating [12, 13] | Crabgrass, Large plant response rating [12, 14]
20: Plant response rating, Velvetleaf ([6]; Postemergence, 125 g ai/ha)
30: Morningglory plant response rating [1, 14] | Plant response rating, Morningglory ([1]; Preemergence, 500 g ai/ha) | Velvetleaf plant response rating [6, 13] | Plant response rating, Wheat ([9]; Preemergence, 500 g ai/ha) | Plant response rating, Crabgrass, Large ([12]; Postemergence, 125 g ai/ha)

CC(c1c(C(F)(F)F)nn(C)c1Cl)[S+]([O-])c1cccc[n+]1[O-] (mixture of isomers) [Compound 27]
60: Foxtail, Giant plant response rating [7, 13]
80: Plant response rating, Foxtail, Giant ([7]; Preemergence, 500 g ai/ha) | Plant response rating, Crabgrass, Large ([12]; Preemergence, 500 g ai/ha)
50: Barnyardgrass plant response rating [2, 13]
30: Foxtail, Giant plant response rating [7, 14] | Plant response rating, Wheat ([9]; Preemergence, 500 g ai/ha)
70: Plant response rating, Barnyardgrass ([2]; Preemergence, 500 g ai/ha)
20: Morningglory plant response rating [1, 13] | Barnyardgrass plant response rating [2, 17] | Corn plant response rating [3, 13] | Velvetleaf plant response rating [6, 14] | Plant response rating, Velvetleaf ([6]; Preemergence, 500 g ai/ha) | Wheat plant response rating [9, 14]
10: Pigweed plant response rating [10, 13]
0: Morningglory plant response rating [1, 17] | Morningglory plant response rating [1, 14] | Plant response rating, Morningglory ([1]; Preemergence, 500 g ai/ha) | Barnyardgrass plant response rating [2, 14] | Corn plant response rating [3, 17] | Corn plant response rating [3, 14] | Plant response rating, Corn ([3]; Preemergence, 500 g ai/ha) | Plant response rating, Sedge, Umbrella [4, 18] | Plant response rating, Sedge, Umbrella [4, 16] | Plant response rating, Sedge, Umbrella [4, 19] | Plant response rating, Sedge, Umbrella [4, 15] | Plant response rating, Barnyardgrass [5, 18] | Plant response rating, Barnyardgrass [5, 16] | Plant response rating, Barnyardgrass [5, 19] | Plant response rating, Barnyardgrass [5, 20] | Velvetleaf plant response rating [6, 17] | Velvetleaf plant response rating [6, 13] | Foxtail, Giant plant response rating [7, 17] | Plant response rating, Rice [8, 18] | Plant response rating, Rice [8, 16] | Plant response rating, Rice [8, 19] | Plant response rating, Rice [8, 20] | Wheat plant response rating [9, 17] | Wheat plant response rating [9, 13] | Pigweed plant response rating [10, 17] | Pigweed plant response rating [10, 14] | Plant response rating, Pigweed ([10]; Preemergence, 500 g ai/ha) | Plant response rating, Ducksalad [11, 18] | Plant response rating, Ducksalad [11, 16] | Plant response rating, Ducksalad [11, 19] | Plant response rating, Ducksalad [11, 20] | Crabgrass, Large plant response rating [12, 17]
40: Crabgrass, Large plant response rating [12, 13] | Crabgrass, Large plant response rating [12, 14]

Cc1cc[n+]([O-])c([S+]([O-])Cc2c(C(F)(F)C(F)(F)F)nn(C)c2OCC(F)(F)F)c1 (stereo not shown) [Compound 91]
10: Corn plant response rating [3, 14]
0: Plant response rating, Barnyardgrass [5, 21] | Velvetleaf plant response rating [6, 14] | Plant response rating, Rice [8, 21]
50: Plant response rating, Pigweed ([10]; Postemergence, 125 g ai/ha) | Plant response rating, Crabgrass, Large ([12]; Postemergence, 125 g ai/ha)
80: Corn plant response rating [3, 13] | Velvetleaf plant response rating [6, 13] | Plant response rating, Foxtail, Giant ([7]; Postemergence, 125 g ai/ha) | Wheat plant response rating [9, 13] | Crabgrass, Large plant response rating [12, 13]
20: Plant response rating, Morningglory ([1]; Postemergence, 125 g ai/ha) | Barnyardgrass plant response rating [2, 14] | Plant response rating, Corn ([3]; Postemergence, 125 g ai/ha) | Crabgrass, Large plant response rating [12, 14]
45: Plant response rating, Ducksalad [11, 21]
90: Barnyardgrass plant response rating [2, 13] | Plant response rating, Corn ([3]; Preemergence, 500 g ai/ha) | Foxtail, Giant plant response rating [7, 13] | Foxtail, Giant plant response rating [7, 14] | Pigweed plant response rating [10, 14]
60: Plant response rating, Wheat ([9]; Postemergence, 125 g ai/ha) | Pigweed plant response rating [10, 13]
75: Plant response rating, Sedge, Umbrella [4, 21]
40: Morningglory plant response rating [1, 14] | Wheat plant response rating [9, 14]
100: Morningglory plant response rating [1, 13] | Plant response rating, Morningglory ([1]; Preemergence, 500 g ai/ha) | Plant response rating, Barnyardgrass ([2]; Preemergence, 500 g ai/ha) | Plant response rating, Sedge, Umbrella [4, 15] | Velvetleaf plant response rating [6, 22] | Plant response rating, Foxtail, Giant ([7]; Preemergence, 500 g ai/ha) | Wheat plant response rating [9, 22] | Plant response rating, Pigweed ([10]; Preemergence, 500 g ai/ha) | Plant response rating, Ducksalad [11, 15] | Plant response rating, Crabgrass, Large ([12]; Preemergence, 500 g ai/ha)
70: Plant response rating, Barnyardgrass ([2]; Postemergence, 125 g ai/ha) | Plant response rating, Barnyardgrass [5, 15] | Plant response rating, Rice [8, 15]
30: Plant response rating, Velvetleaf ([6]; Postemergence, 125 g ai/ha)
